This is an account of results in patent US10988523B2, “Modified lipidated Relaxin B chain peptides and their therapeutic use” (Sanofi, priority 2018, dated 2021).

Structures are written as SMILES. *1 amine or outer side, *2 acyl side, *3 side chain or, on linkers, in order; H or OH if unused. Where a SMILES comes first, the peptide text is derived from it. Side-chain parts run from the residue outwards. [ ]: non-standard residue; d: D form. The star is where a group is joined. X17 = CCCCCCCCCCCCCCC(=O)N[C@@H](CCC(=O)N[C@@H](CCC(=O)N[C@@H](CCC(=O)NCCCOCCOCCOCCCNC(=O)CCC(=O)NCCCOCCOCCOCCCNC(=O)CCC(=O)NCCCOCCOCCOCCCN*)C(=O)O)C(=O)O)C(=O)O; γGlu = O=C(O)[C@H](CCC(=O)[*:2])N[*:1]; Stearoyl = CCCCCCCCCCCCCCCCCC(=O)*; Palmitoyl = CCCCCCCCCCCCCCCC(=O)*; Suc = O=C(CCC(=O)[*:2])[*:1]; αMeK = C[C@](N)(CCCCN)C(=O)O; Nle = CCCC[C@H](N)C(=O)O; AEEA = NCCOCCOCC(=O)O; Aib = CC(C)(N)C(=O)O

The assay deals with T1, RXFP1 (Homo sapiens, UniProt Q9HBX9).
T1 construct: OVCAR5 cells expressing endogenous RXFP1; endogenous in cells; host or cells: OVCAR5 cells
T1 sequence (Q9HBX9 1-757): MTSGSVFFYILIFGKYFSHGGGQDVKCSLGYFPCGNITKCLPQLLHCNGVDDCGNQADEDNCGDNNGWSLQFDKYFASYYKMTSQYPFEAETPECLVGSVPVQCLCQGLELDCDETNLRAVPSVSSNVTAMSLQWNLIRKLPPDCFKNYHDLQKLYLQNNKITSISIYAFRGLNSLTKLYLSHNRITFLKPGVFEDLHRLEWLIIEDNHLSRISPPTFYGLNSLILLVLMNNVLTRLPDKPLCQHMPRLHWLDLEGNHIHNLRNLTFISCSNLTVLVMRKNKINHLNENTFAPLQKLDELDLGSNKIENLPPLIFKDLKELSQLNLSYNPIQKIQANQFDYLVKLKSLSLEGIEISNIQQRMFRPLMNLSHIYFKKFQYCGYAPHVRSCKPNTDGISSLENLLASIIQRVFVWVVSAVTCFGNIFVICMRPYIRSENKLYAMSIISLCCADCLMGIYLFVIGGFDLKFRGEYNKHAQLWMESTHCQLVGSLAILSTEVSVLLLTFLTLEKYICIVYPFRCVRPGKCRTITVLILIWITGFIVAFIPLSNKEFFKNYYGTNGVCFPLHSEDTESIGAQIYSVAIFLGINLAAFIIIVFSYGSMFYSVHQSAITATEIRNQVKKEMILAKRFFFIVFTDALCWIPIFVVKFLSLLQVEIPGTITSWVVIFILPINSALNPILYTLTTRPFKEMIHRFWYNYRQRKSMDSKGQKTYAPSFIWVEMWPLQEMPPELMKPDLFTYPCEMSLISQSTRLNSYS
Briefly: OVCAR5 cAMP assay (HTRF), RXFP1 agonist activity. Type of assay: cell-based. The conditions noted are these: for Emax: OVCAR-5, maximal cAMP relative to H2-relaxin maximum (100%), read-out: EMax, OVCAR 5 cells (cAMP); for EC50: OVCAR5 cells, cAMP HTRF, read-out: EC50 (nM), OVCAR 5 cells (cAMP). The procedure, abridged: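 cAMP accumulation readout: after 1 mM IBMX for 40 min, endogenous-RXFP1 OVCAR5 cells got rising peptide concentrations without FCS, 30 min, 37° C, then lysis with HTRF cAMP reagents. Nonlinear regression gave EC50; Emax expressed relative to H2-relaxin maximum, same occasion.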
(In general: cAMP levels reflect the balance of adenylyl cyclase and phosphodiesterase activity.)

Usually Emax stands for the greatest response seen or fitted, relative to the assay's reference. For the compound `CCCCCCCCCCCCCCCCCC(=O)N[C@@H](CCC(=O)N[C@@H](CCC(=O)N[C@@H](CCC(=O)NCCOCCOCC(=O)NCCOCCOCC(=O)NCCOCCOCC(=O)NCCCC[C@H](NC(=O)[C@H](CCCCN)NC(=O)[C@H](CCCCN)NC(=O)[C@H](CCCNC(=N)N)NC(=O)C(C)(C)NC(=O)[C@@H](NC(=O)[C@H](Cc1c[nH]c2ccccc12)NC(=O)[C@@H](NC(=O)[C@H](CO)NC(=O)[C@H](CCCC)NC(=O)CNC(=O)[C@H](CCC(=O)O)NC(=O)C(C)(C)NC(=O)C(C)(C)NC(=O)[C@@H](NC(=O)[C@H](CCC(N)=O)NC(=O)[C@H](C)NC(=O)[C@H](CCCNC(=N)N)NC(=O)[C@@H](NC(=O)[C@H](CCCCN)NC(=O)[C@H](CCC(=O)O)NC(=O)[C@H](CCCNC(=N)N)NC(=O)CNC(=O)[C@H](CCC(=O)O)NC(=O)[C@H](CC(C)C)NC(C)=O)C(C)C)[C@@H](C)CC)[C@@H](C)O)[C@@H](C)O)C(N)=O)C(=O)O)C(=O)O)C(=O)O` [compound 76] (Ac-LEGREKVRAQI[Aib][Aib]EG[Nle]STWT[Aib]RKKK([AEEA-AEEA-AEEA-γGlu-γGlu-γGlu-Stearoyl])-NH2), the maximal response (Emax) was 89%.
What is called EC50 is the concentration giving half of the maximal effect. For `CCCCCCCCCCCCCCCC(=O)N[C@@H](CCC(=O)N[C@@H](CCC(=O)N[C@@H](CCC(=O)N[C@@H](CCC(=O)NCCCC[C@H](NC(=O)COCCOCCNC(=O)COCCOCCNC(=O)COCCOCCNC(=O)COCCOCCNC(=O)[C@H](CCCCNC(C)=O)NC(=O)[C@H](CCCCN)NC(=O)[C@H](CCCNC(=N)N)NC(=O)[C@](C)(CCCCN)NC(=O)[C@H](CO)NC(=O)[C@H](Cc1ccccc1)NC(=O)[C@@H](NC(=O)[C@H](CO)NC(=O)[C@H](CCCC)NC(=O)CNC(=O)[C@H](CCC(=O)O)NC(=O)C(C)(C)NC(=O)C(C)(C)NC(=O)[C@@H](NC(=O)[C@H](CCCCNC(C)=O)NC(=O)[C@H](C)NC(=O)[C@H](CCCNC(=N)N)NC(=O)[C@@H](NC(=O)[C@H](CCCCN)NC(=O)[C@H](CCC(=O)O)NC(=O)[C@H](CCCNC(=N)N)NC(=O)CNC(=O)[C@H](CCC(=O)O)NC(=O)[C@H](CC(C)C)NC(C)=O)C(C)C)[C@@H](C)CC)[C@@H](C)O)C(N)=O)C(=O)O)C(=O)O)C(=O)O)C(=O)O` [compound 143] (Ac-LEGREKVRAK(Ac)I[Aib][Aib]EG[Nle]STFS[αMeK]RKK(Ac)[AEEA][AEEA][AEEA][AEEA]K([γGlu-γGlu-γGlu-γGlu-Palmitoyl])-NH2), the concentration giving a half-maximal response (EC50) turned out to be 0.4 nM and the Emax came out at 88%.
As to `CCCCCCCCCCCCCCCC(=O)N[C@@H](CCC(=O)N[C@@H](CCC(=O)N[C@@H](CCC(=O)NCCOCCOCC(=O)NCCOCCOCC(=O)NCCCC[C@H](NC(=O)[C@H](CCCCN)NC(=O)[C@H](CCCCN)NC(=O)[C@H](CCCNC(=N)N)NC(=O)C(C)(C)NC(=O)[C@H](CO)NC(=O)[C@H](Cc1c[nH]c2ccccc12)NC(=O)[C@@H](NC(=O)[C@H](CO)NC(=O)[C@H](CCCCNC(C)=O)NC(=O)CNC(=O)[C@H](CCC(=O)O)NC(=O)C(C)(C)NC(=O)C(C)(C)NC(=O)[C@@H](NC(=O)[C@H](CCCCNC(C)=O)NC(=O)[C@H](C)NC(=O)[C@H](CCCNC(=N)N)NC(=O)[C@@H](NC(=O)[C@H](CCCCN)NC(=O)[C@H](CCC(=O)O)NC(=O)[C@H](CCCNC(=N)N)NC(=O)CNC(=O)[C@H](CCC(=O)O)NC(=O)[C@H](CC(C)C)NC(C)=O)C(C)C)[C@@H](C)CC)[C@@H](C)O)C(N)=O)C(=O)O)C(=O)O)C(=O)O` [compound 61] (Ac-LEGREKVRAK(Ac)I[Aib][Aib]EGK(Ac)STWS[Aib]RKKK([AEEA-AEEA-γGlu-γGlu-γGlu-Palmitoyl])-NH2), the half-maximal effective concentration (EC50) stood at 0.17 nM and the Emax is 93%.
Turning to `CCCCCCCCCCCCCCCCCC(=O)N[C@@H](CCC(=O)N[C@@H](CCC(=O)N[C@@H](CCC(=O)N[C@@H](CCC(=O)NCCOCCOCC(=O)NCCOCCOCC(=O)NCCOCCOCC(=O)NCCCC[C@H](NC(=O)[C@H](CCCCN)NC(=O)[C@H](CCCCN)NC(=O)[C@H](CCCNC(=N)N)NC(=O)C(C)(C)NC(=O)[C@H](CO)NC(=O)[C@H](Cc1c[nH]c2ccccc12)NC(=O)[C@@H](NC(=O)[C@H](CO)NC(=O)[C@H](CCCC)NC(=O)CNC(=O)[C@H](CCC(=O)O)NC(=O)C(C)(C)NC(=O)C(C)(C)NC(=O)[C@@H](NC(=O)[C@H](CCC(N)=O)NC(=O)[C@H](C)NC(=O)[C@H](CCCNC(=N)N)NC(=O)[C@@H](NC(=O)[C@H](CCCCN)NC(=O)[C@H](CCC(=O)O)NC(=O)[C@H](CCCNC(=N)N)NC(=O)CNC(=O)[C@H](CCC(=O)O)NC(=O)[C@H](CC(C)C)NC(C)=O)C(C)C)[C@@H](C)CC)[C@@H](C)O)C(N)=O)C(=O)O)C(=O)O)C(=O)O)C(=O)O` [compound 88] (Ac-LEGREKVRAQI[Aib][Aib]EG[Nle]STWS[Aib]RKKK([AEEA-AEEA-AEEA-γGlu-γGlu-γGlu-γGlu-Stearoyl])-NH2), the concentration for a half-maximal effect (EC50) was 0.11 nM and the Emax was 74%.
Regarding `CCCCCCCCCCCCCCC(=O)N[C@@H](CCC(=O)N[C@@H](CCC(=O)N[C@@H](CCC(=O)NCCCOCCOCCOCCCNC(=O)CCC(=O)NCCCOCCOCCOCCCNC(=O)CCC(=O)NCCCOCCOCCOCCCNC(=O)CCC(=O)NCCCC[C@H](NC(=O)[C@H](CCCCNC(C)=O)NC(=O)[C@H](C)NC(=O)[C@H](CCCNC(=N)N)NC(=O)[C@](C)(CCCCN)NC(=O)[C@H](CO)NC(=O)[C@H](Cc1ccccc1)NC(=O)[C@@H](NC(=O)[C@H](CO)NC(=O)[C@H](CCC(N)=O)NC(=O)CNC(=O)[C@H](CCC(=O)O)NC(=O)C(C)(C)NC(=O)C(C)(C)NC(=O)[C@@H](NC(=O)[C@H](CCCCNC(C)=O)NC(=O)[C@H](C)NC(=O)[C@H](CCCNC(=N)N)NC(=O)[C@@H](NC(=O)[C@H](CCCCN)NC(=O)[C@H](CCC(=O)O)NC(=O)[C@H](CCCNC(=N)N)NC(=O)CNC(=O)[C@H](CCC(=O)O)NC(=O)[C@H](CC(C)C)NC(C)=O)C(C)C)[C@@H](C)CC)[C@@H](C)O)C(N)=O)C(=O)O)C(=O)O)C(=O)O` [compound 189] (Ac-LEGREKVRAK(Ac)I[Aib][Aib]EGQSTFS[αMeK]RAK(Ac)K([Suc-X17])-NH2), the maximum response (Emax) is 100%.
As for `CCCCCCCCCCCCCCCCCC(=O)N[C@@H](CCC(=O)N[C@@H](CCC(=O)N[C@@H](CCC(=O)NCCOCCOCC(=O)NCCOCCOCC(=O)NCCCC[C@H](NC(=O)[C@H](CCCCN)NC(=O)[C@H](CCCCN)NC(=O)[C@H](CCCNC(=N)N)NC(=O)C(C)(C)NC(=O)[C@H](CO)NC(=O)[C@H](Cc1c[nH]c2ccccc12)NC(=O)[C@@H](NC(=O)[C@H](CO)NC(=O)[C@H](CCC(N)=O)NC(=O)CNC(=O)[C@H](CCC(=O)O)NC(=O)C(C)(C)NC(=O)C(C)(C)NC(=O)[C@@H](NC(=O)[C@H](CCC(N)=O)NC(=O)[C@H](C)NC(=O)[C@H](CCCNC(=N)N)NC(=O)[C@@H](NC(=O)[C@H](CCCCN)NC(=O)[C@H](CCC(=O)O)NC(=O)[C@H](CCCNC(=N)N)NC(=O)CNC(=O)[C@H](CCC(=O)O)NC(=O)[C@H](CC(C)C)NC(C)=O)C(C)C)[C@@H](C)CC)[C@@H](C)O)C(N)=O)C(=O)O)C(=O)O)C(=O)O` [compound 70] (Ac-LEGREKVRAQI[Aib][Aib]EGQSTWS[Aib]RKKK([AEEA-AEEA-γGlu-γGlu-γGlu-Stearoyl])-NH2), the Emax was found to be 86%.
